How the values were obtained:
3CL^pro mutant F140A = assay type: biochemical, SARS-CoV-2
[1] = test system: SARS-CoV-2 Omicron variant B.1.1.529; details: cited from earlier work

For simnotrelvir, the “IC50 fold change to WT” value (3CL^pro mutant F140A) is given as 21.9 fold and the IC50 [1] is given as 43 nM.

Reference: article PMC11963564 (Antimicrobial Agents and Chemotherapy, 2025)
